Measurements published in paper PMC9118553, “In Vivo Bioconcentration of 10 Anionic Surfactants in Rainbow Trout Explained by In Vitro Data on Partitioning and S9 Clearance” (Environmental Science & Technology, 2022).
Where “and” joins values, the source holds several entries; their conditions need not be identical. Identical values can stand only once. Marks after values point to notes of the source that are not given here.

Assays:
rainbow trout = assay: In vivo bioconcentration experiment with a mixture of anionic surfactants, flow-through aquaria, 10 °C, pH 7.8; details: for Log BCF: determined with measured concentrations in water; for Concentration in fish: individual fish; for diffusion coefficient (D) in the epithelial membrane of the gills: in vivo; for BCF (kinetic): kinetic BCF from measured concentrations in water
Description: The bioconcentration of a mixture of 10 anionic surfactants was measured in rainbow trout in water at pH 7.8. […] The experiment was conducted in flow-through aquaria with juvenile rainbow trout at 10 °C. Ethical approval for the experiments was obtained from Stockholms […] (decision 9967-2017). The fish, fish housing, fish handling, and procedure for introducing the mixture of […] chemicals were very similar to our previous study with cationic surfactants;[5] details are provided in Text S1. The experiment consisted of a 4-day exposure phase and a 7-day depuration phase. […] Water samples were collected and fish were sacrificed according to the schedule in Table S4. The water samples were collected just prior to the daily removal of feces from the aquarium. Triplicate samples were taken at each time point. […] The water/methanol mixture was analyzed using liquid chromatography-mass spectrometry (LC-MS)/MS as described below for fish. At each fish sampling, five fish were sacrificed. Following stunning and severance of the spinal cord, the whole fish were placed in a polyethylene bag, weighed, and immediately frozen at -20 °C. The weight of the individual fish at sacrifice was 24.0 ± 5.6 g. Three of the five fish from each time point were prioritized for analysis based on proximity to the median fish weight. Each fish was […] homogenized with an Ultra-turrax dispersing device. […] This mixture was homogenized in a bullet blender for 5 min and then placed in an ultrasound bath at 45 °C for 15 min. Following centrifugation for 15 min@3200 RCF, the supernatant was decanted and the extraction was repeated. The extracts were combined. For instrumental analysis, 5 μL of the fish extract or 60 μL of the water/methanol mixture (water samples) was separated on an Acquity UPLC BEH C18 column fitted with a BEH C18 pre-column and analyzed on a TSQ Quantiva triple quadrupole mass spectrometer. The mobile phase was methanol (10 mM ammonium acetate) and Milli-Q-filtered water (10 mM ammonium acetate) (see Table S5 for the liquid chromatography program). To avoid detergent blank peaks originating from cleaning mobile phase bottles, the methanol was prepared directly in the solvent bottle as delivered and Milli-Q was tapped into an empty methanol bottle. Furthermore, a guard column was fitted between the mobile phase and the autosampler to prevent background contamination from disturbing the analysis. All analytes were quantified against the BEHP internal standard, as it gave better reproducibility. […] The central goal of the analysis was to estimate kU and kT as well as the BCF (=kU/kT) from measurements of surfactant concentration in fish and water samples collected at different time points of the experiment. For the fish, only those time points were included for which CF(measured) was above the limit of quantitation (LOQ) in all three fish (data below the LOQ will have a positive bias; including them would result in a negative bias in kT). In this analysis, there exist two sources of uncertainty: first, uncertainty in the actual concentration in water CW at the time of sample collection and second, variability in the concentration in fish around the (expected) surfactant concentrations in fish assumed to follow model (1). We therefore set up a model in which we considered uncertainty in both water and fish measurements simultaneously by assuming a parametric model for the surfactant concentration in the water over time (either linear or quadratic) and accounted for the uncertainty in the corresponding parameters of the water model during the estimation of kU and kT. This was done in a joint Bayesian model that we estimated via Hamiltonian Monte Carlo. […]

[1] = Baseline screening BCF (0.0125 DMLW, equilibrium partitioning, no biotransformation); details: for Log baseline BCF: determined as 0.0125 DMLW
Description: Recently, the concept of a baseline screening BCF was introduced for surfactants, based on equilibrium partitioning assuming no biotransformation.[19] The baseline screening BCF for the study chemicals exceeded the measured BCF by 1–2.5 orders of magnitude (Table S16), providing further evidence that biotransformation is an important factor influencing the elimination—and thereby the BCF—of the anionic surfactants studied here in rainbow trout. The deviation of PFOA and PFOS from the regression between BCF and DMLW (Figure 1, upper panel) is attributable to them not being biotransformed.
Table S16: Comparison of the BCF (determined with the measured concentrations in water) and the baseline screening BCF (determined as 0.0125 DMLWa)
CHEMICAL Log BCF Log baseline BCF Log difference […]
a Droge, S. T. J.; Scherpenisse, P.; Arnot, J. A.; Armitage, J. M.; McLachlan, M. S.; Nichols, J.; von der Ohe, P.; Bonnell, M.; Hodges, G. Screening the baseline fish bioconcentration potential of various types of surfactants using phospholipid binding data. Environ. Sci.: Processes Impacts

[2] = determined using nominal concentrations in water
[3] = from measured concentrations in water, Bayesian estimate, 95% credible interval in brackets
[4] = 95% credible interval in brackets
[5] = measured concentrations in water, simpler estimation method (Text S3), 95% confidence intervals in brackets

Compound | BCF (rainbow trout; [2]) [L kg-1 ww] | Log BCF (rainbow trout) [L kg-1 ww] | Concentration in fish (rainbow trout; elimination phase, 97 h) | Concentration in fish (rainbow trout; elimination phase, 98 h) | Concentration in fish (rainbow trout; elimination phase, 100 h) | Concentration in fish (rainbow trout; elimination phase, 103 h) | Concentration in fish (rainbow trout; elimination phase, 120 h) | Concentration in fish (rainbow trout; elimination phase, 128 h) | Concentration in fish (rainbow trout; elimination phase, 144 h) | Concentration in fish (rainbow trout; elimination phase, 168 h) | Concentration in fish (rainbow trout; elimination phase, 192 h) | Concentration in fish (rainbow trout; elimination phase, 264 h) | Concentration in fish (rainbow trout; exposure phase, 1 h) | Concentration in fish (rainbow trout; exposure phase, 2 h) | Concentration in fish (rainbow trout; exposure phase, 3 h) | Concentration in fish (rainbow trout; exposure phase, 4 h) | Concentration in fish (rainbow trout; exposure phase, 6 h) | Concentration in fish (rainbow trout; exposure phase, 24 h) | Concentration in fish (rainbow trout; exposure phase, 48 h) | Concentration in fish (rainbow trout; exposure phase, 72 h) | also measured
CCCCCCCCCCc1ccc(S(=O)(=O)O)cc1 [C10-1-LAS, 1-n-(p-sulfophenyl)decane] | 15.0 | 1.21 | 78 ng g-1 ww (2×) and 103 ng g-1 ww | 73 ng g-1 ww and 72 ng g-1 ww and 55 ng g-1 ww | 74 ng g-1 ww and 57 ng g-1 ww and 60 ng g-1 ww | 47 ng g-1 ww and 58 ng g-1 ww and 51 ng g-1 ww | 24 ng g-1 ww and 27 ng g-1 ww and 17.2 ng g-1 ww | 14.0 ng g-1 ww and 17.0 ng g-1 ww and 18.2 ng g-1 ww | 7.6 ng g-1 ww and 6.8 ng g-1 ww and 10.2 ng g-1 ww | 4.7 ng g-1 ww and 3.5 ng g-1 ww (2×) | 1.08 ng g-1 ww and 1.14 ng g-1 ww and 1.40 ng g-1 ww | 1.0 ng g-1 ww and 0.7 ng g-1 ww and 0.31 ng g-1 ww | 8.9 ng g-1 ww and 6.9 ng g-1 ww and 16.6 ng g-1 ww | 11.3 ng g-1 ww and 10.6 ng g-1 ww and 7.2 ng g-1 ww | 16.5 ng g-1 ww and 19.7 ng g-1 ww and 16.6 ng g-1 ww | 26 ng g-1 ww and 32 ng g-1 ww and 75 ng g-1 ww | 38 ng g-1 ww (2×) and 27 ng g-1 ww | 86 ng g-1 ww and 91 ng g-1 ww and 64 ng g-1 ww | 94 ng g-1 ww and 98 ng g-1 ww and 84 ng g-1 ww | 112 ng g-1 ww and 87 ng g-1 ww and 70 ng g-1 ww | Elimination rate constant kT (rainbow trout; [2]): 0.049 h⁻¹; Uptake rate constant kU (rainbow trout; [2]): 0.74 L/kg/h; Concentration in fish (rainbow trout; exposure phase, 96 h): 113 ng g-1 ww and 104 ng g-1 ww and 110 ng g-1 ww; Elimination rate constant kT (rainbow trout; [3]): 0.047 (0.044–0.050) h^–1; Uptake rate constant kU (rainbow trout; [3]): 0.77 (0.67–0.87) L kg^–1 ww h^–1; diffusion coefficient (D) in the epithelial membrane of the gills (rainbow trout): 2.4 × 10^–8 m h^–1; BCF (kinetic) (rainbow trout; [4]): 16.3 (14.6–18.2) L kg^–1 ww; BCF (rainbow trout; [5]): 14.7 (8) L kg-1 ww; Elimination rate constant kT (rainbow trout; [5]): 0.046 (3) h-1; Uptake rate constant kU (rainbow trout; [5]): 0.67 (8) L kg-1 ww h-1; BCF (rainbow trout; own values): 16.3 L kg^–1; Log difference (baseline BCF vs BCF) [1]: 1.99 L kg-1 ww; Log baseline BCF [1]: 3.20 L kg-1 ww
CCCCCCCCCCCOS(=O)(=O)O [C11SO4, undecylsulfate] | 0.57 | -0.11 | 5.9 ng g-1 ww and 5.5 ng g-1 ww and 6.7 ng g-1 ww | 4.6 ng g-1 ww and 4.4 ng g-1 ww and 3.8 ng g-1 ww | 6.6 ng g-1 ww and 3.0 ng g-1 ww and 3.5 ng g-1 ww | 1.5 ng g-1 ww and 2.0 ng g-1 ww and 2.7 ng g-1 ww | 1.06 ng g-1 ww and 0.77 ng g-1 ww and 0.51 ng g-1 ww | 0.66 ng g-1 ww and 0.48 ng g-1 ww and 0.54 ng g-1 ww | 0.53 ng g-1 ww and 0.27 ng g-1 ww and 0.19 ng g-1 ww | 0.59 ng g-1 ww and 0.22 ng g-1 ww and 0.17 ng g-1 ww | 0.08 ng g-1 ww and 0.13 ng g-1 ww and 0.09 ng g-1 ww | 0.84 ng g-1 ww and 0.15 ng g-1 ww (2×) | 3.1 ng g-1 ww and 3.6 ng g-1 ww and 4.1 ng g-1 ww | 5.6 ng g-1 ww and 4.4 ng g-1 ww and 4.1 ng g-1 ww | 7.5 ng g-1 ww and 9.4 ng g-1 ww and 7.6 ng g-1 ww | 10.7 ng g-1 ww and 11.2 ng g-1 ww and 18.0 ng g-1 ww | 15.8 ng g-1 ww and 14.7 ng g-1 ww and 14.1 ng g-1 ww | 18.5 ng g-1 ww and 15.1 ng g-1 ww and 10.9 ng g-1 ww | 7.4 ng g-1 ww and 12.0 ng g-1 ww and 11.2 ng g-1 ww | 12.6 ng g-1 ww and 8.7 ng g-1 ww and 8.2 ng g-1 ww | Elimination rate constant kT (rainbow trout; [2]): 0.233 h⁻¹; Uptake rate constant kU (rainbow trout; [2]): 0.133 L/kg/h; Concentration in fish (rainbow trout; exposure phase, 96 h): 9.9 ng g-1 ww and 8.7 ng g-1 ww and 14.1 ng g-1 ww; Elimination rate constant kT (rainbow trout; [3]): 0.178 (0.151–0.206) h^–1; Uptake rate constant kU (rainbow trout; [3]): 0.136 (0.113–0.163) L kg^–1 ww h^–1; diffusion coefficient (D) in the epithelial membrane of the gills (rainbow trout): 3.7 × 10^–8 m h^–1; BCF (kinetic) (rainbow trout; [4]): 0.77 (0.68–0.87) L kg^–1 ww; BCF (rainbow trout; [5]): 0.74 (33) L kg-1 ww; Elimination rate constant kT (rainbow trout; [5]): 0.179 (19) h-1; Uptake rate constant kU (rainbow trout; [5]): 0.133 (27) L kg-1 ww h-1; BCF (rainbow trout; own values): 0.77 L kg^–1; Log difference (baseline BCF vs BCF) [1]: 2.37 L kg-1 ww; Log baseline BCF [1]: 2.26 L kg-1 ww
CCCCCCCCCCS(=O)(=O)O [C10SO3, decylsulfonate] | 0.046 | -1.38 | 3.0 ng g-1 ww and 1.5 ng g-1 ww and 1.3 ng g-1 ww | 1.5 ng g-1 ww and 1.0 ng g-1 ww and 1.4 ng g-1 ww | 5.1 ng g-1 ww and 1.4 ng g-1 ww (2×) | 0.3 ng g-1 ww (2×) and 0.6 ng g-1 ww | 0.50 ng g-1 ww and 0.76 ng g-1 ww and 0.61 ng g-1 ww | 0.62 ng g-1 ww and 0.49 ng g-1 ww and 0.99 ng g-1 ww | 0.63 ng g-1 ww and 0.33 ng g-1 ww and 5.2 ng g-1 ww | 0.49 ng g-1 ww and 0.55 ng g-1 ww and 0.16 ng g-1 ww | 0.14 ng g-1 ww and 0.15 ng g-1 ww and 0.22 ng g-1 ww | 2.0 ng g-1 ww and 1.9 ng g-1 ww and 0.2 ng g-1 ww | 1.1 ng g-1 ww and 2.1 ng g-1 ww and 1.4 ng g-1 ww | 1.1 ng g-1 ww (2×) and 7.5 ng g-1 ww | 1.5 ng g-1 ww and 1.6 ng g-1 ww and 5.5 ng g-1 ww | 2.4 ng g-1 ww and 3.5 ng g-1 ww and 6.5 ng g-1 ww | 2.1 ng g-1 ww and 2.0 ng g-1 ww and 1.4 ng g-1 ww | 42.8 ng g-1 ww and 1.4 ng g-1 ww (2×) | 2.4 ng g-1 ww and 3.6 ng g-1 ww and 1.7 ng g-1 ww | 3.6 ng g-1 ww and 2.1 ng g-1 ww and 3.0 ng g-1 ww | Concentration in fish (rainbow trout; exposure phase, 96 h): 3.0 ng g-1 ww (2×) and 2.8 ng g-1 ww; BCF (steady-state) (rainbow trout; steady-state BCF, plateau 6-96 h, measured concentrations in water, 95% confidence interval in brackets): 0.042 ^d (0.034–0.050) L kg^–1 ww; Log difference (baseline BCF vs BCF) [1]: 2.48 L kg-1 ww; Log baseline BCF [1]: 1.11 L kg-1 ww
